66 compounds from patent publication US8404683B2, “Inhibitors of the interaction between MDM2 and P53” (Janssen Pharmaceutical N.V., priority 2004, dated 2013) can be followed below.

Structures are written as SMILES.

For this test, the system named is U87MG cells. Description: Proliferation assay (MTT-based) on U87MG tumour cells. Conditions: Homo sapiens, U-87 MG, 96 h, 4 days of incubation, negative log value of the IC50-value, read-out: cell proliferation pIC50 (converted). Here is the method:
U87MG cells are human glioblastoma cells with wild type p53. In this cell line MDM2 tightly controls p53 expression.
Cellular activity of the compounds of formula (I) was determined on U87MG tumour cells using a colorimetric assay for cell toxicity or survival (see example C.2).
All compounds tested were dissolved in DMSO and further dilutions were made in culture medium. Final DMSO concentrations never exceeded 0.1% (v/v) in cell proliferation assays. Controls contained U87MG cells and DMSO without compound and blanks contained DMSO but no cells.
U87MG cells were seeded in 96-well cell culture plates at 3000 cells/well/100 μl. 24 hours later, medium was changed and compound and/or solvent were added to a final volume of 200 μl. Following 4 days of incubation, medium was replaced by 200 μl fresh medium and cell growth was assessed using a MTT-based assay. Therefore, 25 μl of the MTT solution (0.5% MTT research grade from Serva in phosphate-buffered saline) was added to each well and the cells were further incubated for 2 hours at 37° C. The medium was then carefully aspirated and the blue MTT-formazan product was dissolved by adding to each well 25 μl 0.1 M glycin and 100 μl DMSO. The plates were shaken for another 10 min on a micro plate shaker before reading absorbance at 540 nm by a Biorad micro plate reader.
Within an experiment, the results for each experimental condition are the mean of 3 replicate wells. For initial screening purposes, compounds were tested at a single fixed concentration of 10^−5 M. For active compounds, the experiments were repeated to establish full concentration-response curves. For each experiment, controls (containing no drug) and a blank incubation (containing no cells or drugs) were run in parallel. The blank value was subtracted from all control and sample values. For each sample, the mean value for cell growth (in absorbance units) was expressed as a percentage of the mean value for cell growth of the control. When appropriate, IC50-values (concentration of the drug, needed to reduce cell growth to 50% of the control) were computed using probit analysis for graded data (Finney, D. J., Probit Analyses, 2nd Ed. Chapter 10, Graded Responses, Cambridge University Press, Cambridge 1962). Herein the effects of test compounds are expressed as pIC50 (the negative log value of the IC50-value) (see table F-2).

`CC(C)C(O)c1cc(Nc2ccc(NCCc3c[nH]c4ccccc34)cc2)ccn1` (stereo not drawn) [Compound 137]: the IC50 is 3.16 µM. For the compound `CN(C)CCNCc1cc(Nc2ccc(NCCc3c[nH]c4ccccc34)cc2)ccn1` [Compound 59], the IC50 was 0.398 µM. As for `CCC(=O)NCc1cc(Nc2ccc(NCCc3c[nH]c4ccccc34)cc2)ccn1` [Compound 132], the IC50 was above 10 µM. With `N#Cc1cc(Nc2ccc(NCCc3c[nH]c4ccccc34)cc2)ccn1` [Compound 86], the IC50 is above 10 µM. Take `Clc1ccc2[nH]cc(CCNc3ccc(Nc4ccncc4)cc3)c2c1` [Compound 182]: the IC50 is 1.58 µM. As for `CCOC(=O)/C=C/c1cnccc1Nc1ccc(NCCc2c[nH]c3ccccc23)cc1` [Compound 126], the IC50 is above 10 µM. The same measure for `Cc1[nH]c2ccccc2c1CCNc1ccc(Nc2ccncc2)cc1` [Compound 77]: 3.16 µM; for `CC(NCCN1CCOCC1)c1cc(Nc2ccc(NCCc3c[nH]c4ccccc34)cc2)ccn1` (stereo not drawn) [Compound 144]: 3.16 µM; for `Nc1cccc2c(Nc3ccc(NCCc4c[nH]c5ccccc45)cc3)ccnc12` [Compound 25]: 0.0398 µM. On to `Cc1cc(Nc2ccc(NCCc3c[nH]c4ccccc34)cc2)c2ccccc2n1` [Compound 12], for which the IC50 was 0.0126 µM.

In the case of `CC(=O)NCc1cc(Nc2ccc(NCCc3c[nH]c4ccccc34)cc2)ccn1` [Compound 206], the IC50 is 3.16 µM. Take `O=C(C(Cc1c[nH]c2ccccc12)Nc1ccc(Nc2ccncc2)cc1)N1CCC(CO)CC1` (stereo not drawn) [Compound 224]: the IC50 is 3.98 µM. The same measure for `COC(=O)c1ccc2nc(C)cc(Nc3ccc(NCCc4c[nH]c5ccccc45)cc3)c2c1` [Compound 15]: 0.0501 µM. As for `Cc1ccc2[nH]cc(CCNc3ccc(Nc4ccncc4)cc3)c2c1` [Compound 185], the IC50 was 2 µM. On to `COC(=O)CCNCc1cc(Nc2ccc(NCCc3c[nH]c4ccccc34)cc2)ccn1` [Compound 96], for which the IC50 is above 10 µM. Take `CNCc1cc(Nc2ccc(NCCc3c[nH]c4ccccc34)cc2)ccn1` [Compound 154]: the IC50 is 3.16 µM. Turning to `c1ccc(CCCCNCc2cc(Nc3ccc(NCCc4c[nH]c5ccccc45)cc3)ccn2)cc1` [Compound 170], the IC50 is 3.16 µM. The same measure for `NC(=O)C(Cc1c[nH]c2ccccc12)Nc1ccc(Nc2ccnc3ccccc23)cc1` (stereo not drawn) [Compound 18]: 0.501 µM. Turning to `Cc1noc(-c2cc(Nc3ccc(NCCc4c[nH]c5ccccc45)cc3)ccn2)n1` [Compound 106], the IC50 was 1.58 µM. As for `c1ccc2c(CCCNc3ccc(Nc4ccncc4)cc3)c[nH]c2c1` [Compound 71], the figure is 0.794 µM; as for `CCOCc1cc(Nc2ccc(NCCc3c[nH]c4ccccc34)cc2)ccn1` [Compound 134], 1.26 µM; as for `COc1ccc2c(CCNc3ccc(Nc4ccnc5ccccc45)cc3)c[nH]c2c1` [Compound 13], 0.0251 µM. Consider `FC(F)(F)c1cccc2c(Nc3ccc(NCCc4c[nH]c5ccccc45)cc3)ccnc12` [Compound 31], for which the IC50 is 1.26 µM. For the compound `c1ccc2c(CCNc3ccc(Nc4ccnc(CN5CCOCC5)c4)cc3)c[nH]c2c1` [Compound 159], the IC50 was 3.16 µM. For the compound `COC(=O)c1cnccc1Nc1ccc(NCCc2c[nH]c3ccccc23)cc1` [Compound 124], the IC50 was 5.01 µM.

On to `O=C(O)CCNCc1cc(Nc2ccc(NCCc3c[nH]c4ccccc34)cc2)ccn1` [Compound 97], for which the IC50 is above 10 µM.

On to `Cn1cc(CCN(c2ccncc2)c2ccc(Nc3ccncc3)cc2)c2ccccc21` [Compound 10], for which the IC50 was 1.26 µM.

Consider `CC(=O)c1cc(Nc2ccc(NCCc3c[nH]c4ccccc34)cc2)ccn1` [Compound 105], for which the IC50 is 7.94 µM.

As for `CCN(CCCCO)C(=O)C(Cc1c[nH]c2ccccc12)Nc1ccc(Nc2ccncc2)cc1` (stereo not drawn) [Compound 212], the IC50 is 1.58 µM.

Consider `O=C(NCc1cc(Nc2ccc(NCCc3c[nH]c4ccccc34)cc2)ccn1)C1CC1` [Compound 130], for which the IC50 was 1.58 µM.

As to `COc1cc(Nc2ccnc(CO)c2)ccc1NCCc1c[nH]c2ccccc12` [Compound 179], the IC50 is 0.251 µM.

Turning to `CCCc1cc(Nc2ccc(NCCc3c[nH]c4ccccc34)cc2)c2ccccc2n1` [Compound 30], the IC50 is 0.316 µM.

With `O=C(C(Cc1c[nH]c2ccccc12)Nc1ccc(Nc2ccncc2)cc1)N1CCCC(CO)C1` (stereo not drawn) [Compound 218], the IC50 was above 10 µM.

On to `c1ccc2c(CNc3ccc(NCCc4c[nH]c5ccccc45)cc3)ccnc2c1` [Compound 120], for which the IC50 was 5.01 µM. As for `O=C(C(Cc1c[nH]c2ccccc12)Nc1ccc(Nc2ccncc2)cc1)N1CCC(CCCO)CC1` (stereo not drawn) [Compound 217], the figure is 3.98 µM; as for `c1ccc2c(c1)NCC2CCNc1ccc(Nc2ccnc3ccccc23)cc1` (stereo not drawn) [Compound 34], 0.0501 µM; as for `Cn1cc(CCNc2ccc(Nc3ccnc4ccccc34)cc2)c2ccccc21` [Compound 28], 0.2 µM.

Take `COc1ccc2nccc(Nc3ccc(NCCc4c[nH]c5ccccc45)cc3)c2c1` [Compound 24]: the IC50 is below 0.01 µM.

In the case of `CN(CCO)C(=O)C(Cc1c[nH]c2ccccc12)Nc1ccc(Nc2ccncc2)cc1` (stereo not drawn) [Compound 213], the IC50 was above 10 µM. As to `Cc1cc(Nc2ccc(NCCc3c[nH]c4ccccc34)cc2)c2cc(CO)ccc2n1` [Compound 19], the IC50 is 0.2 µM.

As for `CNC(=O)c1cc(Nc2ccc(NCCc3c[nH]c4ccccc34)cc2)ccn1` [Compound 63], the IC50 is 1.58 µM. With `COc1cc(Nc2ccncc2)ccc1NCCc1c[nH]c2ccccc12` [Compound 66], the IC50 is 0.0631 µM. For `CN(C)Cc1cc(Nc2ccc(NCCc3c[nH]c4ccccc34)cc2)ccn1` [Compound 158], the IC50 is above 10 µM. As to `COCCN(C)C(=O)C(Cc1c[nH]c2ccccc12)Nc1ccc(Nc2ccncc2)cc1` (stereo not drawn) [Compound 215], the IC50 is 3.16 µM. Take `OCC(Cc1c[nH]c2ccccc12)Nc1ccc(Nc2ccncc2)cc1` (stereo not drawn) [Compound 48]: the IC50 is 0.158 µM. The same measure for `O=C(C(Cc1c[nH]c2ccccc12)Nc1ccc(Nc2ccncc2)cc1)N1CCC(CCO)C1` (stereo not drawn) [Compound 210]: above 10 µM; for `OCCNCc1cc(Nc2ccc(NCCc3c[nH]c4ccccc34)cc2)ccn1` [Compound 152]: 10 µM; for `N#Cc1ccc2nccc(Nc3ccc(NCCc4c[nH]c5ccccc45)cc3)c2c1` [Compound 29]: 0.251 µM. Consider `c1cncc(Nc2cccc(NCCc3c[nH]c4ccccc34)c2)c1` [Compound 76], for which the IC50 is above 10 µM. Regarding `Clc1cc(Nc2ccc(NCCc3c[nH]c4ccccc34)cc2)ccn1` [Compound 103], the IC50 is 3.98 µM. As for `COCc1cc(Nc2ccc(NCCc3c[nH]c4ccccc34)cc2)ccn1` [Compound 64], the IC50 is 0.398 µM. As for `O=C(c1ccccc1)c1cc(Nc2ccc(NCCc3c[nH]c4ccccc34)cc2)ccn1` [Compound 56], the IC50 was 2.51 µM. As for `O=C(C(Cc1c[nH]c2ccccc12)Nc1ccc(Nc2ccncc2)cc1)N1CCN(CCO)CC1` (stereo not drawn) [Compound 114], the figure is above 10 µM. Regarding `CC(NCCO)c1cc(Nc2ccc(NCCc3c[nH]c4ccccc34)cc2)ccn1` (stereo not drawn) [Compound 147], the IC50 was 5.01 µM. Take `CCNCc1cc(Nc2ccc(NCCc3c[nH]c4ccccc34)cc2)ccn1` [Compound 155]: the IC50 is 2 µM.

Take `c1ccc2c(Nc3ccc(NCCc4c[nH]c5ccccc45)cc3)ccnc2c1` [Compound 1]: the IC50 is below 0.01 µM.

Turning to `COc1cc(Nc2ccnc3ccccc23)ccc1NCCc1c[nH]c2ccccc12` [Compound 16], the IC50 was 0.0398 µM. The same measure for `O=C(C(Cc1c[nH]c2ccccc12)Nc1ccc(Nc2ccncc2)cc1)N1CCCCC1CCCO` (stereo not drawn) [Compound 216]: 2.51 µM; for `CC(N)c1cc(Nc2ccc(NCCc3c[nH]c4ccccc34)cc2)ccn1` (stereo not drawn) [Compound 141]: 3.98 µM; for `NCc1cc(Nc2ccc(NCCc3c[nH]c4ccccc34)cc2)ccn1` [Compound 55]: 0.501 µM.

For the compound `COC(=O)CCNC(C)c1cc(Nc2ccc(NCCc3c[nH]c4ccccc34)cc2)ccn1` (stereo not drawn) [Compound 146], the IC50 is 7.94 µM. Take `OCc1cc(Nc2ccc(NCCc3c[nH]c4ccccc34)cc2)ccn1` [Compound 37]: the IC50 was 0.158 µM.

On to `c1ccc2c(c1)NCC2CCNc1ccc(Nc2ccncc2)cc1` (stereo not drawn) [Compound 68], for which the IC50 was 2.51 µM. Consider `COc1cccc2c(Nc3ccc(NCCc4c[nH]c5ccccc45)cc3)ccnc12` [Compound 21], for which the IC50 was 0.01 µM. Turning to `COc1ccc2c(CCNc3ccc(Nc4ccnc(CO)c4)cc3)c[nH]c2c1` [Compound 180], the IC50 is 0.631 µM. Consider `CC(C)(C)C(O)c1cc(Nc2ccc(NCCc3c[nH]c4ccccc34)cc2)ccn1` (stereo not drawn) [Compound 138], for which the IC50 is 1.58 µM.
